Measured values taken from PMC6116703, “Ethenesulfonyl fluoride derivatives as telomerase inhibitors: structure-based design, SAR, and anticancer evaluation in vitro” (Journal of Enzyme Inhibition and Medicinal Chemistry, 2018).
Like-named read-outs stand apart in the source and are kept apart here.

Columns and labels:
human melanoma cell A375 = assay: Cell proliferation (MTT) assay, A375; type: cell-based
Method: (§1) The antiproliferative activities evaluation was conducted by using a modified procedure as described in the literature. Briefly, target tumour cells were grown to log phase in RPMI 1640 medium supplemented with 10% fetal bovine serum. After diluting to 3 × 10^4 cells mL^−1 with the complete medium, 100 µL of the obtained cell suspension was added to each well of 96-well culture plates. The subsequent incubation was performed at 37 °C, 5% CO2 atmosphere for 24 h before subjecting to antiproliferation assessment. The tested samples at pre-set concentrations were added to six wells with Doxorubicin (AMD) co-assayed as a positive reference. After 48 h of exposure period, 25 µL of PBS containing 2.5 mg·mL^−1 of MTT was added to each well. After 4 h, the medium was replaced by 150 µL DMSO to dissolve the purple formazan crystals produced. The absorbance at 570 nm of each well was measured using an ELISA plate reader. The data represented the mean of three experiments in triplicate and were expressed as means ± SD using Student’s test.

[1] = test system: human breast cancer cell MDA-MB-231; assay: Cell proliferation (MTT) assay, MDA-MB-231; type: cell-based
Method: as §1

[2] = test system: human hepatoma cell SMMC-7721; assay: Cell proliferation (MTT) assay, SMMC-7721; type: cell-based; details: read-out: IC50 SMMC-7721
Method: as §1

telomerase = target: T1, telomerase (Homo sapiens, UniProt O14746); assay: Telomerase activity TRAP-PCR-ELISA assay (A375 cell extract); type: biochemical; details: TRAP-PCR-ELISA, A375 cells, 24 h treatment
T1 construct: endogenous in cells; host or cells: A375 human melanoma cells
T1 sequence (O14746 whole entry): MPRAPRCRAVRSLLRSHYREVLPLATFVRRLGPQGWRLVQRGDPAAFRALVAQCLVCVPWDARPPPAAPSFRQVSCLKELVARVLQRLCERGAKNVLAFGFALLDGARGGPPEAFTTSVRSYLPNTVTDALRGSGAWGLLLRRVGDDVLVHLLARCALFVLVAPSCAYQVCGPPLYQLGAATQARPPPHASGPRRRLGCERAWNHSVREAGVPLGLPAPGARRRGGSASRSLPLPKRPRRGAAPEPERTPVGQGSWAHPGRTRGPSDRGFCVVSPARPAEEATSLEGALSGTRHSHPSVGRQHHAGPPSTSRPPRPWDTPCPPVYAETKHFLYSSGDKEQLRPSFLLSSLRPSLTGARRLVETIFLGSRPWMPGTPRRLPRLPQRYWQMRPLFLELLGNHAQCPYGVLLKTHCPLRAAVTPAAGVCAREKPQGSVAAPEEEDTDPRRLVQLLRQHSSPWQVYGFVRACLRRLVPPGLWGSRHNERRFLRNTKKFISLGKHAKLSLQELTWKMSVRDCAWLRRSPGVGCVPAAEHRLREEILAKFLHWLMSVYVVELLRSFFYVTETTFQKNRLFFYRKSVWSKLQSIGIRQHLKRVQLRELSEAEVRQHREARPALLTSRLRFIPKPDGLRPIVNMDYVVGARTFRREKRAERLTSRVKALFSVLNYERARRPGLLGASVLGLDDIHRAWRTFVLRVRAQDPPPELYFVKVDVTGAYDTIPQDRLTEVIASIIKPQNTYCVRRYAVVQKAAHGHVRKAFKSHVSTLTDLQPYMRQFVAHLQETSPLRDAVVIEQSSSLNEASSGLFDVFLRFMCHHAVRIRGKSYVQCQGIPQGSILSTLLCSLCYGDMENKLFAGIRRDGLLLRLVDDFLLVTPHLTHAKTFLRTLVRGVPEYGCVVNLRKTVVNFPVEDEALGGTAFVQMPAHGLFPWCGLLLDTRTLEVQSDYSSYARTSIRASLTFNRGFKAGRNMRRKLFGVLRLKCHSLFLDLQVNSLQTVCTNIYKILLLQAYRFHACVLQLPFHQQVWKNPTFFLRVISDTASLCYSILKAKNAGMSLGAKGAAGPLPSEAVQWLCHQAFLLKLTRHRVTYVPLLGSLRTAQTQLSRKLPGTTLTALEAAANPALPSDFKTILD
Method: Thirty-six compounds were tested in a search for inhibitors of telomerase activity using the TRAP-PCR-ELISA assay. In detail, the A375 cells were firstly maintained in RPMI 1640 buffer (Hyclone, Miami, FL), supplemented with 10% fetal bovineserum (GIBCO, New York, NY), streptomycin (0.1 mg/mL) and penicillin (100 IU/mL) at 37 °C in a humidified atmosphere containing 5% CO2. After trypsinisation, 5 × 10^4 cultured cells in logarithmic growth were seeded into T25 flasks (Corning, New York, NY) and cultured to allow to adherence. […] After 24 h treatment, the cells were harvested by cell scraper orderly followed by washing once with PBS. The cells were lysed in 150 µL RIPA cell lysis buffer (Santa Cruz, Santa Cruz, CA), and incubated on ice for 30 min. The cellular supernatants were obtained via centrifugation at 12,000g for 20 min at 4 °C and stored at –80 °C. The TRAP-PCR-ELISA assay was performed using a telomerase detection kit (Roche, Basel, Switzerland) according to the manufacturer’s protocol. In brief, 2 µL of cell extracts were mixed with 48 µL TRAP reaction mixtures. TRAP primers and Taq polymerase are incubated at 25 °C for 30 min. PCR was then initiated at 94 °C, 120 s for predenaturation and performed using 35 cycles each consisting of 94 °C for 30 s, 50 °C for 30 s, 72 °C for 90 s. Then 20 µL of PCR products were hybridised to a digoxigenin (DIG)-labelled telomeric repeat specific detection probe. And the PCR products were immobilised via the biotin-labelled primer to a streptavidin-coated microtiter plate subsequently. The immobilised DNA fragments were detected with a peroxidase-conjugated anti-DIG antibody and visualised following the addition of the stop regent. The microtitre plate was assessed on TECAN Infinite M200 microplate reader (Mannedorf, Switzerland) at a wavelength of 490 nm, and the final value were presented as mean ± SD[23].

[3] = antiproliferative, MTT, 48 h exposure, read-out: IC50 A375
[4] = antiproliferative, MTT, 48 h exposure, read-out: IC50 MDA-MB-231
[5] = antiproliferative, MTT, 48 h exposure
[6] = Homo sapiens, A-375, 48 h, read-out: IC50 A375, antiproliferative, MTT, 48 h exposure
[7] = read-out: IC50 A375, antiproliferative, MTT, 48 h exposure
[8] = Homo sapiens, MDA-MB-231, 48 h, read-out: IC50 MDA-MB-231, antiproliferative, MTT, 48 h exposure
[9] = IC50 inhibitory activity against telomerase

SMILES | IC50 (human melanoma cell A375; [3]) [µM] | IC50 [1, 4] [µM] | IC50 [2, 5] [µM] | IC50 (telomerase; [9]) [µM] | also measured
O=S(=O)(F)/C=C/c1ccc(Oc2ccccc2)cc1 [Compound 3] | 27 ± 0.82 | 31.8 ± 1.44 |  |  | 
COc1ccc(/C=C/S(=O)(=O)F)cc1 [Compound 4] | 16.9 ± 1.22 | 24.7 ± 2.15 | 73.8 ± 1.7 |  | 
CC(=O)c1ccc(/C=C/S(=O)(=O)F)cc1 [Compound 11] | 10.6 ± 0.9 | 5.66 ± 0.28 | 65.8 ± 1.79 |  | 
O=[N+]([O-])c1ccc(/C=C/S(=O)(=O)F)cc1 [Compound 12] |  |  |  | 2.77 ± 0.58 | IC50 (human melanoma cell A375; [6]): ~3 µM; IC50 (human melanoma cell A375; [7]): 3.58 ± 0.11 µM; IC50 [1, 8]: 4.25 ± 0.32 µM
N#Cc1ccc(/C=C/S(=O)(=O)F)cc1 [Compound 13] |  |  |  | 39 ± 1.29 | 
CCOC(=O)c1ccc(/C=C/S(=O)(=O)F)cc1 [Compound 14] | 50 ± 1.78 | 3.6 ± 0.3 | 27 ± 1.01 |  | 
COc1cccc(/C=C/S(=O)(=O)F)c1 [Compound 16] | 21.1 ± 0.87 | 28.5 ± 1.78 | 45.6 ± 1.29 |  | 
Cc1cccc(/C=C/S(=O)(=O)F)c1 [Compound 17] |  |  |  | 10.1 ± 1.13 | IC50 (human melanoma cell A375; [6]): 12.1 ± 1.19 µM; IC50 [1, 8]: 10.6 ± 0.91 µM
O=S(=O)(F)/C=C/c1cccc(F)c1 [Compound 18] |  |  |  | 1.09 ± 0.11 | IC50 (human melanoma cell A375; [6]): ~3 µM; IC50 (human melanoma cell A375; [7]): 3.82 ± 0.31 µM; IC50 [1, 8]: 5.24 ± 0.4 µM; IC50 ([2]; Homo sapiens, SMMC-7721, 48 h): 24.8 ± 1.58 µM
O=S(=O)(F)/C=C/c1cccc(Br)c1 [Compound 19] | 20.1 ± 0.9 | 12.1 ± 1.52 |  |  | 
O=S(=O)(F)/C=C/c1cccc(C(F)(F)F)c1 [Compound 20] |  |  |  | 4.17 ± 0.39 | IC50 (human melanoma cell A375; [6]): 10.4 ± 0.82 µM; IC50 [1, 8]: 3.18 ± 0.2 µM; IC50 ([2]; Homo sapiens, SMMC-7721, 48 h): 20 ± 1.74 µM
O=[N+]([O-])c1cccc(/C=C/S(=O)(=O)F)c1 [Compound 22] |  |  |  | 2.25 ± 0.3 | IC50 (human melanoma cell A375; [6]): 4.14 ± 0.21 µM; IC50 [1, 8]: 6.54 ± 0.74 µM; IC50 ([2]; Homo sapiens, SMMC-7721, 48 h): 26.1 ± 0.73 µM
COc1ccccc1/C=C/S(=O)(=O)F [Compound 23] | 25.3 ± 1.33 | 33.8 ± 2.89 |  |  | 
Cc1ccccc1/C=C/S(=O)(=O)F [Compound 24] | 24.5 ± 1.55 | 41.8 ± 2.97 | 52.8 ± 1.44 |  | 
Cc1ccc(/C=C/S(=O)(=O)F)c(C)c1 [Compound 27] | 7.83 ± 0.4 | 39.8 ± 2.55 | 50.7 ± 1.82 |  | 
Cc1cc(C)cc(/C=C/S(=O)(=O)F)c1 [Compound 28] | 10.2 ± 0.75 | 20.6 ± 2.11 | 16.7 ± 0.65 |  | 
Cc1cc(/C=C/S(=O)(=O)F)ccc1Br [Compound 29] | 14.3 ± 0.91 | 16.9 ± 0.87 |  |  | 
O=S(=O)(F)/C=C/c1cccc2ccccc12 [Compound 30] | 28 ± 1.31 | 25.1 ± 0.99 | 2.29 ± 0.17 |  | 
O=S(=O)(F)/C=C/c1ccc(F)cc1F [Compound 32] | 12.3 ± 0.41 | 16.1 ± 0.41 | 27 ± 0.9 |  | 
O=S(=O)(F)/C=C/c1cccc(O)c1 [Compound 34] | 5.37 ± 0.6 | 23.4 ± 0.88 | 23 ± 0.45 |  | 
O=S(=O)(F)/C=C/c1ccccc1O [Compound 35] | 7.41 ± 0.77 | 7.41 ± 0.33 | 36.5 ± 0.7 |  | 
O=S(=O)(F)/C=C/c1cc(O)cc(O)c1 [Compound 36] |  |  |  | 1.44 ± 0.22 | IC50 (human melanoma cell A375; [6]): 4.01 ± 0.68 µM; IC50 [1, 8]: 37.2 ± 1.4 µM; IC50 ([2]; Homo sapiens, SMMC-7721, 48 h): 29 ± 0.78 µM

SMILES | IC50 (human melanoma cell A375; [3]) [µM] | IC50 [1, 4] [µM] | IC50 [2, 5] [µM] | IC50 (telomerase; [9]) [µM] | also measured
O=Cc1ccc(/C=C/S(=O)(=O)F)o1 [Compound 37] | 9.09 ± 0.81 | 21.5 ± 1.29 | 35.1 ± 0.49 |  | 
O=S(=O)(F)/C=C/c1cccc2c1oc1ccccc12 [Compound 38] | 40.8 ± 1.39 | 83.2 ± 2.91 |  |  | 
O=S(=O)(F)/C=C/c1cc2ccccc2o1 [Compound 39] |  |  |  | 48.8 ± 2.22 | 
O=S(=O)(F)/C=C/c1ccsc1 [Compound 41] | 14.6 ± 1.2 | 10.6 ± 0.46 | 28.8 ± 0.75 |  | 
O=S(=O)(F)/C=C/c1cc2ccccc2s1 [Compound 42] |  |  |  |  | IC50 inhibitory activity against telomerase (telomerase): no
Cc1ccc(S(=O)(=O)n2cc(/C=C/S(=O)(=O)F)c3ccccc32)cc1 [Compound 44] |  |  |  | 15.2 ± 1.56 | IC50 (human melanoma cell A375; [6]): 5.34 ± 0.3 µM; IC50 ([2]; Homo sapiens, SMMC-7721, 48 h): 9.24 ± 0.4 µM
Cc1ccc(S(=O)(=O)n2ccc3cc(/C=C/S(=O)(=O)F)ccc32)cc1 [Compound 45] |  |  |  |  | IC50 (human melanoma cell A375; [6]): 8.61 ± 0.28 µM; IC50 ([2]; Homo sapiens, SMMC-7721, 48 h): 15.6 ± 0.78 µM
O=S(=O)(F)/C=C/c1cnn(-c2ccccc2)c1 [Compound 47] |  |  |  | 2.13 ± 0.6 | IC50 (human melanoma cell A375; [6]): 9.04 ± 0.29 µM; IC50 [1, 8]: 10.2 ± 0.44 µM; IC50 ([2]; Homo sapiens, SMMC-7721, 48 h): 21.2 ± 0.49 µM
O=S(=O)(F)/C=C/C=C/c1ccc(Br)cc1 [Compound 51] | 42 ± 1.6 | 20.9 ± 1.09 | 31.2 ± 1.33 |  | 
O=S(=O)(F)/C=C/C=C/c1ccc(C(F)(F)F)cc1 [Compound 52] | 13.3 ± 0.87 | 15.3 ± 0.82 | 24.3 ± 1.19 |  | 
O=S(=O)(F)/C=C/C=C/c1ccccc1Cl [Compound 53] | 17.5 ± 0.98 | 28.5 ± 1.14 | 57.3 ± 2.01 |  | 
O=S(=O)(F)/C=C/C=C/c1ccccc1C(F)(F)F [Compound 54] | 17.5 ± 1.52 | 28.5 ± 1.16 | 19 ± 0.71 |  | 
O=S(=O)(F)/C=C/C=C/c1ccc2ccccc2c1 [Compound 55] |  |  |  | 47.2 ± 1.52 | IC50 (human melanoma cell A375; [6]): 5.87 ± 0.2 µM; IC50 [1, 8]: 14.3 ± 1.07 µM; IC50 ([2]; Homo sapiens, SMMC-7721, 48 h): 34.1 ± 1.45 µM
O=C1C=C(/C=C/S(=O)(=O)F)CCC1 [Compound 58] |  |  |  |  | IC50 (telomerase; read-out: IC50 inhibitory activity against telomerase): 39.9 ± 1.29 µM
O=S(=O)(F)/C=C/c1cc(F)nc(F)c1 [Compound 59] |  |  |  | 44.2 ± 2.26 | IC50 (human melanoma cell A375; [6]): 58 ± 1.71 µM
O=Cc1cccc(/C=C/S(=O)(=O)F)c1 [Compound 60] | 10.7 ± 0.8 |  |  |  | 
O=C(O)c1ccc(/C=C/S(=O)(=O)F)cc1 [Compound 62] |  |  |  | 39.9 ± 1.4 | IC50 (human melanoma cell A375; [6]): 45.1 ± 1.4 µM; IC50 [1, 8]: 86.2 ± 2.44 µM
O=S(=O)(F)/C=C/c1ccc(I)cc1 [Compound 63] |  |  |  | 45.3 ± 1.87 | 
CSc1ccc(/C=C/S(=O)(=O)F)cc1 [Compound 64] | 23.9 ± 1.37 | 38.3 ± 0.9 |  |  | 
Cc1ccc(/C=C/S(=O)(=O)F)cc1 [Compound 65] | 32.7 ± 1.22 | 30.5 ± 1.29 |  |  | 
O=S(=O)(F)/C=C/c1ccccc1Cl [Compound 78] | 26.3 ± 2.35 | 35.2 ± 1.28 |  |  | 
O=S(=O)(F)/C=C/c1ccc(C(F)(F)F)nc1 [Compound 79] | 23 ± 1.75 |  |  |  | 
